Experimental data published in patent US9302985B2, “Benzyl sulfonamide derivatives as RORc modulators” (Genentech, Inc., priority 2012, dated 2016).

Molecular target: RORc ligand binding domain (Homo sapiens (Human), UniProt P51449)
Experiment: In vitro RORc Ligand Binding Assay
Details: displacement of 6 nM 25-[3H]hydroxycholesterol; 0.6 ug/mL RORc receptor; 3 h at 25° C.
Experimental: In vitro RORc Ligand Binding Assay
This assay was used to determine a compound's potency in inhibiting activity of RORc by determining, Kiapp, IC50, or percent inhibition values.
On day of the assay, 100 uL of 0.05% CHAPS (in deionized H2O) was added to all wells of the GFB Unifilter plate and allowed soak for 1 h. A wash buffer of 50 mM HEPES (pH 7.4), 150 mM NaCl, and 5 mM MgCl2 was prepared to wash the filter plate. To prepare an assay buffer, BSA was added to the wash buffer to reach 0.01% and DTT was added to reach 1 mM.
The 20× compound stocks were diluted in DMSO with Assay Buffer 4-fold to reach 5× the final test concentration in 25% DMSO (10 uL compound+30 uL Assay Buffer). Solutions were mixed by aspiration several times with a pipette set on 50 uL volume. For the assay, 10 uL of 5× compound stock solutions in 25% DMSO were added to the assay plate in duplicate.
For 25-hydroxycholesterol in 25% DMSO/75% Assay Buffer; 10 uL per well was used for NSB samples. Wells for Total Binding and No Receptor sample determination contained 10 uL of 25% DMSO/75% Assay Buffer per well.
Add 20 uL to all wells to reach 6 nM final concentration in the assay.
Stock receptor solution was diluted in assay buffer to obtain 1.5 ug/mL in Assay Buffer. 20 uL was added to all wells. For No Receptor samples, 20 uL Assay Buffer was substituted for receptor solution.
Assay plates were 96-well polypropylene V-bottom plates. 10 uL of 5× compound in 25% DMSO/75% Assay Buffer was added to Test wells. 10 uL of 25% DMSO/75% Assay Buffer was added to Total Binding or No Receptor wells. 10 uL of 5 uM 25-hydroxycholesterol in 25% DMSO/75% Assay Buffer was added to NSB wells. […] 20 uL of 1.5 ug/mL RORc receptor was added to wells (or 40 uL Assay Buffer to No R wells). Following addition to the wells, the plates were incubated 3 h at 25° C.
Using a Packard Filtermate Harvester, the filter plate were washed 4 times following transfer of the incubated samples. Plates were dry-filtered completely (2 h at 50° C. or overnight at room temperature). 50 uL Microscint 0 was added to all wells and read on Topcount protocol Inverted.
Final concentrations were as follows: 50 mM HEPES buffer (pH 7.4); 150 mM NaCl; 1 mM DTT; 5 mM MgCl2; 0.01% BSA; 5% DMSO; 0.6 ug/mL RORc receptor; 6 nM 25-[^3H]hydroxycholesterol. For NSB wells, 1 uM 25-hydroxycholesterol was also present.

RORc ligand binding domain, sequence (P51449 269-508, species assumed): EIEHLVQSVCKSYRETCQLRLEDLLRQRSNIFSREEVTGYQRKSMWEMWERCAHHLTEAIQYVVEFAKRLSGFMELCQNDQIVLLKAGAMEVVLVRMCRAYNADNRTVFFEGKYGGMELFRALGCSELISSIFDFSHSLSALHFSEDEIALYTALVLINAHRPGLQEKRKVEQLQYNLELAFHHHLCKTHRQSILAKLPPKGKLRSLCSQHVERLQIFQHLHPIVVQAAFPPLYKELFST

| IC50 | Compound |
| --- | --- |
| 38 nM | CC(C)CN(c1cccc(Cl)c1)S(=O)(=O)c1ccc(-c2ccc(C(N)=O)cc2)cc1 [Compound 15, 4′-[(3-Chloro-phenyl)-isobutyl-sulfamoyl]-biphenyl-4-carboxylic acid amide] |
| 124 nM | CC(C)CN(Cc1ccccc1)S(=O)(=O)c1ccc(-c2ccc(C(N)=O)cc2)cc1 [Compound 7, 4′-(Benzyl-isobutyl-sulfamoyl)-biphenyl-4-carboxylic acid amide] |
| 103 nM | CC(C)CN(c1cccc(Cl)c1)S(=O)(=O)c1ccc(-c2ccc(S(N)(=O)=O)cc2)cc1 [Compound 14, Biphenyl-4,4′-disulfonic acid 4′-amide 4-[(3-chloro-phenyl)-isobutyl-amide]] |
| 138 nM | CC(C)CN(c1cccc(Cl)c1)S(=O)(=O)c1ccc(Oc2ccc(S(C)(=O)=O)cc2)cc1 [Compound 5, N-(3-Chloro-phenyl)-N-isobutyl-4-(4-mehanesulfonyl-phenoxy)-benzenesulfonamide] |
| 39 nM | CC(C)CN(c1ccccc1Cl)S(=O)(=O)c1ccc(-c2ccc(C(N)=O)cc2)cc1 [Compound 16, 4′-[(2-Chloro-phenyl)-isobutyl-sulfamoyl]-biphenyl-4-carboxylic acid amide] |
